Results on twelve compounds are retold here after patent publication US11319315B2, “Cyclohexyl acid triazole azoles as LPA antagonists” (BRISTOL-MYERS SQUIBB COMPANY, priority 2017, dated 2022).

Molecules are shown by their SMILES. Where a name gives a salt, the structure may show the parent alone.

The target in one test is T1, human LPA1 (Homo sapiens, UniProt Q92633).
T1 construct: expressed in transfected cells; host or cells: Chinese hamster ovary (CHO) cells
T1 sequence (Q92633 whole entry): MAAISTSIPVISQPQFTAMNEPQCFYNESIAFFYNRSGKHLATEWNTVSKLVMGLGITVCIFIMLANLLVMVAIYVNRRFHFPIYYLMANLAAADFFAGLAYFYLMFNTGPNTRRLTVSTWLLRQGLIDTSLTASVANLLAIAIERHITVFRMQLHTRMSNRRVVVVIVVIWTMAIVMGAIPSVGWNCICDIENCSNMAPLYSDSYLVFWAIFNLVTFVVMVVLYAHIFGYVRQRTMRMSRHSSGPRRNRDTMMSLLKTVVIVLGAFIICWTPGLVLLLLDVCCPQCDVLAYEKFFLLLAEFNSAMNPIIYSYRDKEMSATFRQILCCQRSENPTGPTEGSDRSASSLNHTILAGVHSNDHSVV
Kind of test: LPA1 functional antagonist assay (LPA-induced calcium flux in CHO cells overexpressing human LPA1). The following applies: inhibition of calcium flux induced by 10 nM LPA, CHO cells overexpressing human LPA1; read-out: hLPA1 IC50. It counts as cell-based. In short, it runs like this: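 CHO cells overexpressing human LPA1, dye-loaded 30 min at 37 °C, then given compound (0.08 nM–5 μM final, 0.5% DMSO) in HBSS/20 mM HEPES/0.1% fatty-acid-free BSA for 20 min at room temperature before 10 nM LPA. IC50 as 50% inhibition of LPA-evoked calcium flux, 4-parameter logistic fit.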
(A change in cytosolic calcium serves as a functional read-out for many receptors and channels.)
As for `Cc1nc(-c2nnn(C)c2Cc2noc(C(C)C3CC3)n2)ccc1O[C@H]1CCC[C@H](C(=O)O)C1` (mixture of isomers) [Example 239, (1S,3S)-3-((6-(5-((5-(1-cyclopropyl-ethyl)-1,2,4-oxadiazol-3-yl)methyl)-1-methyl-1H-1,2,3-triazol-4-yl)-2-methylpyridin-3-yl)oxy)cyclohexane-1-carboxylic acid], the IC50 amounted to 28 nM. Take `Cc1nc(-c2nnn(C)c2CNc2noc(COC3CCC3)n2)ccc1O[C@H]1CCC[C@H](C(=O)O)C1` [Example 283, (1S,3S)-3-((6-(5-(((5-(cyclobutoxymethyl)-1,2,4-oxadiazol-3-yl)amino)methyl)-1-methyl-1H-1,2,3-triazol-4-yl)-2-methylpyridin-3-yl)oxy)cyclo-hexane-1-carboxylic acid, TFA salt]: the IC50 worked out at 19 nM.

For `Cc1nc(-c2nnn(C)c2Cc2noc(CCC3CC3)n2)ccc1O[C@H]1CCC[C@H](C(=O)O)C1` [Example 231, (1S,3S)-3-((6-(5-((5-(2-cyclopropylethyl)-1,2,4-oxadiazol-3-yl)methyl)-1-methyl-1H-1,2,3-triazol-4-yl)-2-methylpyridin-3-yl)oxy)cyclohexane-1-carboxylic acid], the IC50 is 15 nM. As to `CCCCNc1nnn(Cc2c(-c3ccc(O[C@H]4CCC[C@H](C(=O)O)C4)c(C)n3)nnn2C)n1` [Example 362, (1S,3S)-3-((6-(5-((5-(butylamino)-2H-tetrazol-2-yl)methyl)-1-methyl-1H-1,2,3-triazol-4-yl)-2-methyl-pyridin-3-yl)oxy)cyclohexane-1-carboxylic acid], the half-inhibitory concentration (IC50) was 316 nM. As for `Cc1nc(-c2nnn(C)c2CNc2nsc(C3CC3)n2)ccc1O[C@H]1CCC[C@H](C(=O)O)C1` [Example 1, (1 S,3 S)-3-((6-(5-(((5-Cyclopropyl-1,2,4-thiadiazol-3-yl)amino)methyl)-1-methyl-1H-1,2,3-triazol-4-yl)-2-methylpyridin-3-yl)oxy)cyclohexane-1-carboxylic acid], the concentration for half-maximal inhibition (IC50) is 1180 nM.

Turning to `Cc1nc(-c2nnn(C)c2CNc2nnc(C(C)C)o2)ccc1O[C@H]1CCC[C@H](C(=O)O)C1` [Example 42, (1S,3S)-3-((6-(5-(((5-Isopropyl-1,3,4-oxadiazol-2-yl)amino)methyl)-1-methyl-1H-1,2,3-triazol-4-yl)-2-methylpyridin-3-yl)oxy)cyclohexane-1-carboxylic acid, 2 TFA salt], the half-inhibitory concentration (IC50) is 1410 nM. Turning to `Cc1nc(-c2nnn(C)c2COc2nc(C(C)C)ns2)ccc1O[C@H]1CCC[C@H](C(=O)O)C1` [Example 128], the IC50 is 98 nM. On to `Cc1nc(-c2nnn(C)c2Cn2nnc(Cc3ccc(Cl)cc3)n2)ccc1O[C@H]1CCC[C@H](C(=O)O)C1` [Example 324, (1S,3S)-3-((6-(5-((5-(4-chloro-benzyl)-2H-tetrazol-2-yl)methyl)-1-methyl-1H-1,2,3-triazol-4-yl)-2-methylpyridin-3-yl)oxy)cyclo-hexane-1-carboxylic acid], for which the half-inhibitory concentration (IC50) stood at 38 nM. For the compound `Cc1nc(-c2nnn(C)c2CNc2nnc(CCC(C)C)o2)ccc1O[C@H]1CCC[C@H](C(=O)O)C1` [Example 55], the concentration for half-maximal inhibition (IC50) stood at 45 nM. Turning to `CCCc1nnc(NCc2c(-c3ccc(O[C@H]4CCC[C@H](C(=O)O)C4)c(C)n3)nnn2C)o1` [Example 52], the half-maximal inhibitory concentration (IC50) came out at 396 nM. Regarding `Cc1ccn(Cc2nnnn2Cc2c(-c3ccc(O[C@H]4CCC[C@H](C(=O)O)C4)c(C)n3)nnn2C)n1` [Example 303, (1S,3S)-3-({2-methyl-6-[1-methyl-5-({5-[(3-methyl-1H-pyrazol-1-yl)methyl]-1H-1,2,3,4-tetrazol-1-yl}methyl)-1H-1,2,3-triazol-4-yl]pyridin-3-yl}oxy)cyclohexane-1-carboxylic acid], the IC50 turned out to be 951 nM.

The same test, now with this note: read-out: hLPA1 IC50.
Regarding `CCc1nc(-c2nnn(C)c2CNc2nc(C3CC3)ns2)ccc1O[C@H]1CCC[C@H](C(=O)O)C1` [Example 397, (1S,3S)-3-((6-(5-(((3-cyclopropyl-1,2,4-thiadiazol-5-yl)amino)methyl)-1-methyl-1H-1,2,3-triazol-4-yl)-2-ethylpyridin-3-yl)oxy)cyclohexane-1-carboxylic acid], the IC50 was 931 nM.

As usually defined, the IC50 is the concentration at which inhibition is half-maximal.
